Experimental data: US20140154251A1, “ANTI C-MET ANTIBODY AND USES THEREOF” (Samsung Electronics Co., Ltd., priority 2011, published 2014)

B1: L3-11Y: heavy chain of huAbF46-H4-A1 (IgG2 Fc) with light chain SEQ ID NO: 73 (serine 27e replaced with tryptophan) (antibody)
heavy: EVQLVESGGGLVQPGGSLRLSCAASGFTFTDYYMSWVRQAPGKGLEWLGFIRNKANGYTTEYSASVKGRFTISRDNSKNTLYLQMNSLRAEDTAVYYCARDNWFAYWGQGTLVTVSSASTKGPSVFPLAPCSRSTSESTAALGCLVKDYFPEPVTVSWNSGALTSGVHTFPAVLQSSGLYSLSSVVTVPSSNFGTQTYTCNVDHKPSNTKVDKTVERKCCVECPPCPAPPVAGPSVFLFPPKPKDTLMISRTPEVTCVVVDVSHEDPEVQFNWYVDGVEVHNAKTKPREEQFNSTFRVVSVLTVVHQDWLNGKEYKCKVSNKGLPAPIEKTISKTKGQPREPQVYTLPPSREEMTKNQVSLTCLVKGFYPSDIAVEWESNGQPENNYKTTPPMLDSDGSFFLYSKLTVDKSRWQQGNVFSCSVMHEALHNHYTQKSLSLSPGK
light: DIQMTQSPSSLSASVGDRVTITCKSSQSLLAWGNQNNYLAWYQQKPGKAPKMLIIWASTRVSGVPSRFSGSGSGTDFTLTISSLQPEDFATYYCQQSYSRPYTFGQGTKVEIKRTVAAPSVFIFPPSDEQLKSGTASVVCLLNNFYPREAKVQWKVDNALQSGNSQESVTEQDSKDSTYSLSSTLTLSKADYEKHKVYACEVTHQGLSSPVTKSFNRGEC

Columns and labels:
[1] = system: MHCC97H (human liver cancer cell line); assay: MHCC97H liver cancer xenograft model; assay type: in vivo, BALB/C nude mouse; details: 30 mg/kg p.o., q.d. x 4 weeks
Description: The antitumor activity of huAbF46-H4-A1(IgG2 Fc) was evaluated in a BALB/C nude mouse MHCC97H (human liver cancer cell line) xenograft model (referring to Example 16.2). Approximately 3 million MHCC97H cells in 100 μL of serum-free media were injected via s.c. to each of the 140 mice under anesthesia by 1-2% isoflurane. Ten days after subcutaneous inoculation with MHCC97H tumor cells, dosing commenced in the following treatment groups: 0 (PBS vehicle), 0.2, 1, 5 or 10 mg/kg huAbF46-H4-A1 (IgG2 Fc) i.v., q.w.×4 weeks; 30 mg/kg sorafenib p.o., q.d.×4 weeks (positive control). Each group consisted of 15 mice. Tumor volumes and body weights were measured two to three times a week for total study period about 4 weeks. The tumor volume (V) was calculated as follows: V (mm^3)={long axis length (mm)×(short axis length (mm))^2}/2.

Akt = Akt phosphorylation in Caki-1 cells (phospho-AKT1 Ser473 ELISA); assay type: cell-based; details: 5 ug/ml, 30 minutes (FIG. 8B)
Description: (§1) To compare agonism of the 4 types of antibodies having improved affinities, as prepared in Example 5, Caki-1 cells (Korean Cell Line Bank) were used to confirm the degree of Akt phosphorylation. Mouse IgG was used as a negative control, and antibody 5D5 (a known agonist) was used as a positive control.
(§2) 2×10^5 cells/ml of Caki-1 cells were introduced to a 96-well plate, and after 24 hours, each of 5 ug/ml of the antibodies was treated in serum free medium for 30 minutes. Lysis of the cells treated with the antibodies was performed and the degree of Akt phosphorylation was measured using a PathScan phospho-AKT1 (Ser473) chemiluminescent Sandwich ELISA kit (Cell Signaling, cat. no #7134S).
as §1, with “3” for “4”, “11,” for “5,”, “and a 5D5” for “and”, “antibody” for “antibody 5D5”
as §2, with “with” for “with the”, “and a” for “and the”, “phosphorylation inhibition” for “phosphorylation”, “(Ser473) a” for “(Ser473)”

Row | Molecule | tumor growth (in words) [1] | activity of Akt phosphorylation inhibition compared to huAbF46-H4-A1(IgG2 Fc) (Akt)
1 | CNC(=O)c1cc(Oc2ccc(NC(=O)Nc3ccc(Cl)c(C(F)(F)F)c3)cc2)ccn1 [sorafenib, reference compound] | significant inhibition | 
2 | B1 |  | equal or higher activity of Akt phosphorylation inhibition
